Literature values, collected in patent US10874605B2, “Extended release biodegradable ocular implants” (Allergan, Inc., priority 2004, dated 2020).

Details: efficacy in vivo

Compound: C[C@]12CCC(=O)C=C1CC[C@@H]1[C@@H]2[C@@H](O)C[C@@]2(C)[C@H]1CC[C@]2(O)C(=O)CO [hydrocortisone]
- dose equivalent to a 1 mg dose of dexamethasone: 25 mg
- potency relative to dexamethasone: approximately twenty five fold less potent than dexamethasone
